From patent EP0361977A2, “Peptides having T cell suppressor activity” (IMM[…] INSTITUTE, INC., priority 1988, dated 1990)
Where a SMILES comes first, the peptide text is derived from it. The star is where a group is joined. βNA = c1ccc2cc(N*)ccc2c1; NHcHex = C1CCC(N*)CC1; NHPh = c1ccc(N*)cc1; X1 = c1ccc(NN*)cc1; NHiPr = CC(C)N*; For = O=C*

How the values were obtained:
[1] = system: CEM cells; experiment: Cyclic GMP assay in CEM cells; assay type: cell-based, human; conditions: for induction of intracellular cyclic GMP (active / inactive peptides): CEM cells, dose-response curves from 1 to 1000 micrograms/ml, Fig. 1, composite of 6 experiments, compared with thymopentin; for T cell suppressor activity: thymopentin-like activity, cyclic GMP assays on CEM cells
From the text: This assay measures the ability of a peptide of this invention to bind to the cell membrane receptor of the intact CEM cell and selectively stimulate production of cyclic GMP, as does human thymopentin.
The CEM cell line was obtained from the American Type Culture Collection of Rockville, Md. CEM cells were freshly seeded and grown for 3 days with harvesting as described in T. Audhya et al, Arch. Biochem Biophys., 234: 167-177 (1984). The cells were washed 3 times in PBS and resuspended in RPMI 1640 at a concentration of 1.0 x 10⁷ cells/ml and were allowed to equilibrate at 37°C for 30 minutes before the addition of the test peptides (25 ul) and control peptides. The incubation was allowed to proceed in a shaking water bath for 4-5 minutes and was then terminated by addition of 1 ml ice-cold TCA (10 percent).
The cells in TCA were homogenized and sonicated to release cyclic nucleotide. The suspension was centrifuged at 3000 x g for 20 minutes at 4°C. The resulting precipitate was dissolved in 0.1 N NaOH to determine the protein content. TCA was removed from the supernatant fraction by extracting 4 times with 5 ml of water-saturated ET₂O. After the final extraction, the remaining traces of ether were removed by heating for 10 minutes in a 50°C water bath. After lyophilization the sample was reconstituted in 50 mM acetate buffer (pH 6.2) for radioimmunoassay of cyclic GMP.
For example, dose-response curves from 1 to 1000 micrograms/ml of peptide, were evaluated for each compound. […] A threshold activity was determined for each peptide tested. This is defined as the lowest concentration of the test peptide which induced an intracellular level of cyclic GMP greater than two standard deviations above the control. The controls had intracellular cyclic GMP values of less than 0.9 picomoles/ml (mean±standard deviation). Test results were considered positive if the level of cyclic GMP was greater than 2 times that determined for the parallel negative control. Active peptides had activity thresholds ranging from […].

[2] = system: MOLT-4 cells; experiment: T cell helper activity, MOLT-4 T cell line (intracellular cGMP); assay type: cell-based, human; conditions: thymopentin-like; assay not described for these peptides
[3] = system: helper T cell activity; conditions: mice; cited from earlier work

Compound | induction of intracellular cyclic GMP (active / inactive peptides) [1] | T cell suppressor activity [1] | T cell helper activity [2] | helper T cell activity in vivo [3]
Arg-Lys-Asp-Val-Piperidineamide | active |  |  | 
CC(C)[C@H](NC(=O)[C@H](CC(=O)O)NC(=O)[C@H](CCCCN)NC(=O)[C@@H](N)CCCNC(=N)N)C(=O)Nc1ccc2ccccc2c1 [Arg-Lys-Asp-Val-2-Naphthylamide, reference compound] (H-RKDV-βNA) | inactive | do not display T cell suppressor stimulatory activity of thymopentin |  | 
CC(C)[C@H](NC(=O)[C@H](CC(=O)O)NC(=O)[C@H](CCCCN)NC(=O)[C@@H](N)CCCNC(=N)N)C(=O)NNc1ccccc1 [Arg-Lys-Asp-Val-Phenylhydrazide, Arg-Lys-Asp-Val-2-Phenylhydrazide] (H-RKDV-X1) | active |  |  | 
CC(C)NC(=O)[C@@H](NC(=O)[C@H](CC(=O)O)NC(=O)[C@H](CCCCN)NC(=O)[C@@H](N)CCCNC(=N)N)C(C)C [Arg-Lys-Asp-Val-Isopropylamide, Arg-Lys-Asp-Val-2-propylamide] (H-RKDV-NHiPr) |  | display both T cell suppressor and helper activities like thymopentin | display both T cell suppressor and helper activities like thymopentin | 
CC(C)[C@H](NC(=O)[C@H](CC(=O)O)NC(=O)[C@H](CCCCN)NC(=O)[C@@H](N)CCCNC(=N)N)C(=O)Nc1ccccc1 [Arg-Lys-Asp-Val-Anilineamide] (H-RKDV-NHPh) | active |  |  | 
CNC(=O)[C@@H](NC(=O)[C@H](CC(=O)O)NC(=O)[C@@H]1CCCN1C(=O)[C@H](CCCNC(=N)N)NC=O)C(C)C [Formyl-Arg-Pro-Asp-Val-Methylamide, N-formyl-Arg-Pro-Asp-Val-Methylamide] (For-RPDV-NHMe) |  | display both T cell suppressor and helper activities like thymopentin | display both T cell suppressor and helper activities like thymopentin | 
CC(C)NC(=O)[C@@H](NC(=O)[C@H](CC(=O)O)NC(=O)[C@@H]1CCCN1C(=O)[C@@H](N)CCCNC(=N)N)C(C)C [Arg-Pro-Asp-Val-Isopropylamide] (H-RPDV-NHiPr) | active | display both T cell suppressor and helper activities like thymopentin | display both T cell suppressor and helper activities like thymopentin | 
Arg-Lys-Glu-Val-Tyr [SP-5] |  |  |  | stimulates helper T cell activity in vivo in mice
Arg-Pro-Asp-Val-Morpholinoamide [reference compound] |  | do not display T cell suppressor stimulatory activity of thymopentin |  | 
Arg-Lys-Asp-Val-Dimethylamide [reference compound] | inactive | do not display T cell suppressor stimulatory activity of thymopentin |  | 
CCNC(=O)[C@@H](NC(=O)[C@H](CCC(=O)O)NC(=O)[C@@H]1CCCN1C(=O)[C@H](CCCNC(=N)N)NC(C)=O)C(C)C [Acetyl-Arg-Pro-Glu-Val-Ethylamide, reference compound] (Ac-RPEV-NHEt) |  | do not display T cell suppressor stimulatory activity of thymopentin |  | 
CC(C)[C@H](NC(=O)[C@H](CC(=O)O)NC(=O)[C@H](CCCCN)NC(=O)[C@@H](N)CCCNC(=N)N)C(=O)NC1CCCCC1 [Arg-Lys-Asp-Val-Cyclohexylamide] (H-RKDV-NHcHex) | active |  |  | 
